How the values were obtained:
[1] = hygroscopicity (salt screening); type: physicochemical
[2] = water solubility (salt screening); type: physicochemical

| SMILES | hygroscopicity [1] | water solubility [2] |
| --- | --- | --- |
| O=C(N[C@@H]1C2CCN(CC2)[C@H]1Cc1cccnc1)c1cc2ccccc2o1.O=P(O)(O)O [phosphoric acid salt] | low | – |
| Cc1ccc(S(=O)(=O)O)cc1.O=C(N[C@@H]1C2CCN(CC2)[C@H]1Cc1cccnc1)c1cc2ccccc2o1 [p-toluenesulfonic acid salt, (2S,3R)—N-(2-((3-pyridinyl)methyl)-1-azabicyclo[2.2.2]oct-3-yl)benzofuran-2-carboxamide p-toluenesulfonate] | low | good |
